Data: patent US20240238242A1, “EGCG buccal tablet and use thereof” (priority 2023, published 2024)
In brackets after ≈: the same amount, converted by molar mass. Several values for one entry are separate records, joined by “and”; a condition that tells them apart may be missing. Equal entries are not always repeated.

Experiments:
[1] = system: Helicobacter pylori (Hp) strain B5-3; assay: In vitro bactericidal concentration (MBC) against Helicobacter pylori, broth dilution and plate counting; conditions: for Bactericidal rate % / Concentration CFU/mL / Average number of colonies: shake flask about 24 hours; for Average number of colonies: dilution factor 10^−4
Coronavirus (hCoV-229E) = assay: Inactivation efficiency against coronavirus hCoV-229E strain (residual TCID50 on Huh-7 cells); format: cell-based; conditions: for CPE test (virus replication in cell wells): wells 1-10; for average inactivation efficiency against virus: three experiments

Compound: O=C(O[C@@H]1Cc2c(O)cc(O)cc2O[C@@H]1c1cc(O)c(O)c(O)c1)c1cc(O)c(O)c(O)c1 [EGCG, Epigallocatechin gallate]
- Bactericidal rate % ([1]; EGCG 100 μM): 98.8%
- Concentration CFU/mL ([1]; EGCG 100 μM): 1.4 × 10^7 CFU/mL
- Average number of colonies ([1]; EGCG 100 μM): 142
- Bactericidal rate % ([1]; EGCG 200 μM): >99.9%
- Concentration CFU/mL ([1]; EGCG 200 μM): 3.5 × 10^6 CFU/mL
- Average number of colonies ([1]; EGCG 200 μM): 35
- Bactericidal rate % ([1]; EGCG 400 μM): >99.9%
- Concentration CFU/mL ([1]; EGCG 400 μM): 2.2 × 10^6 CFU/mL
- Average number of colonies ([1]; EGCG 400 μM): 22
- MBC ([1]; Helicobacter pylori, 24 h, read-out: minimum bactericidal concentration (MBC)): 200 µM (≈ 91.7 µg/mL)
- Hp inactivated ([1]; shake flask culture, lowest concentration of 100 μM): about 98.9%
- CPE test (virus replication in cell wells) (Coronavirus (hCoV-229E); 0.2 mM EGCG + hCoV-229E virus, co-incubated 1 minute, first experiment, dilution factor 10^1): +
- CPE test (virus replication in cell wells) (Coronavirus (hCoV-229E); 0.2 mM EGCG + hCoV-229E virus, co-incubated 1 minute, first experiment, dilution factor 10^2): +
- CPE test (virus replication in cell wells) (Coronavirus (hCoV-229E); 0.2 mM EGCG + hCoV-229E virus, co-incubated 1 minute, first experiment, dilution factor 10^3): +
- CPE test (virus replication in cell wells) (Coronavirus (hCoV-229E); 0.2 mM EGCG + hCoV-229E virus, co-incubated 1 minute, first experiment, dilution factor 10^4): +
- CPE test (virus replication in cell wells) (Coronavirus (hCoV-229E); 0.2 mM EGCG + hCoV-229E virus, co-incubated 1 minute, first experiment, dilution factor 10^5): − and +
- CPE test (virus replication in cell wells) (Coronavirus (hCoV-229E); 0.2 mM EGCG + hCoV-229E virus, co-incubated 1 minute, first experiment, dilution factor 10^6): −
- CPE test (virus replication in cell wells) (Coronavirus (hCoV-229E); 0.2 mM EGCG + hCoV-229E virus, co-incubated 1 minute, first experiment, dilution factor 10^7): −
- CPE test (virus replication in cell wells) (Coronavirus (hCoV-229E); 0.2 mM EGCG + hCoV-229E virus, co-incubated 1 minute, first experiment, dilution factor 10^8): −
- CPE test (virus replication in the cell wells) (Coronavirus (hCoV-229E); 0.2 mM EGCG + virus, co-incubated 5 minute, first experiment, dilution factor 10^1, wells 1-10): +
- CPE test (virus replication in the cell wells) (Coronavirus (hCoV-229E); 0.2 mM EGCG + virus, co-incubated 5 minute, first experiment, dilution factor 10^2, wells 1-10): +
- CPE test (virus replication in the cell wells) (Coronavirus (hCoV-229E); 0.2 mM EGCG + virus, co-incubated 5 minute, first experiment, dilution factor 10^3, wells 1-10): +
- CPE test (virus replication in the cell wells) (Coronavirus (hCoV-229E); 0.2 mM EGCG + virus, co-incubated 5 minute, first experiment, dilution factor 10^4, wells 1-10): +
- CPE test (virus replication in the cell wells) (Coronavirus (hCoV-229E); 0.2 mM EGCG + virus, co-incubated 5 minute, first experiment, dilution factor 10^5, wells 1-10): + and −
- CPE test (virus replication in the cell wells) (Coronavirus (hCoV-229E); 0.2 mM EGCG + virus, co-incubated 5 minute, first experiment, dilution factor 10^6, wells 1-10): + and −
- CPE test (virus replication in the cell wells) (Coronavirus (hCoV-229E); 0.2 mM EGCG + virus, co-incubated 5 minute, first experiment, dilution factor 10^7, wells 1-10): −
- CPE test (virus replication in the cell wells) (Coronavirus (hCoV-229E); 0.2 mM EGCG + virus, co-incubated 5 minute, first experiment, dilution factor 10^8, wells 1-10): −
- CPE test (virus replication in the cell wells) (Coronavirus (hCoV-229E); 0.2 mM EGCG + virus, co-incubated 5 minute, second experiment, dilution factor 10^1, wells 1-10): +
- CPE test (virus replication in the cell wells) (Coronavirus (hCoV-229E); 0.2 mM EGCG + virus, co-incubated 5 minute, second experiment, dilution factor 10^2, wells 1-10): +
- CPE test (virus replication in the cell wells) (Coronavirus (hCoV-229E); 0.2 mM EGCG + virus, co-incubated 5 minute, second experiment, dilution factor 10^3, wells 1-10): +
- CPE test (virus replication in the cell wells) (Coronavirus (hCoV-229E); 0.2 mM EGCG + virus, co-incubated 5 minute, second experiment, dilution factor 10^4, wells 1-10): +
- CPE test (virus replication in the cell wells) (Coronavirus (hCoV-229E); 0.2 mM EGCG + virus, co-incubated 5 minute, second experiment, dilution factor 10^5, wells 1-10): + and −
- CPE test (virus replication in the cell wells) (Coronavirus (hCoV-229E); 0.2 mM EGCG + virus, co-incubated 5 minute, second experiment, dilution factor 10^6, wells 1-10): − and +
- CPE test (virus replication in the cell wells) (Coronavirus (hCoV-229E); 0.2 mM EGCG + virus, co-incubated 5 minute, second experiment, dilution factor 10^7, wells 1-10): −
- CPE test (virus replication in the cell wells) (Coronavirus (hCoV-229E); 0.2 mM EGCG + virus, co-incubated 5 minute, second experiment, dilution factor 10^8, wells 1-10): −
- CPE test (virus replication in the cell wells) (Coronavirus (hCoV-229E); 0.2 mM EGCG + virus, co-incubated 5 minutes, dilution factor 10^1, wells 1-10, third experiment): +
- CPE test (virus replication in the cell wells) (Coronavirus (hCoV-229E); 0.2 mM EGCG + virus, co-incubated 5 minutes, dilution factor 10^2, wells 1-10, third experiment): +
- CPE test (virus replication in the cell wells) (Coronavirus (hCoV-229E); 0.2 mM EGCG + virus, co-incubated 5 minutes, dilution factor 10^3, wells 1-10, third experiment): +
- CPE test (virus replication in the cell wells) (Coronavirus (hCoV-229E); 0.2 mM EGCG + virus, co-incubated 5 minutes, dilution factor 10^4, wells 1-10, third experiment): + and −
- CPE test (virus replication in the cell wells) (Coronavirus (hCoV-229E); 0.2 mM EGCG + virus, co-incubated 5 minutes, dilution factor 10^5, wells 1-10, third experiment): +
- CPE test (virus replication in the cell wells) (Coronavirus (hCoV-229E); 0.2 mM EGCG + virus, co-incubated 5 minutes, dilution factor 10^6, wells 1-10, third experiment): − and +
- CPE test (virus replication in the cell wells) (Coronavirus (hCoV-229E); 0.2 mM EGCG + virus, co-incubated 5 minutes, dilution factor 10^7, wells 1-10, third experiment): −
- CPE test (virus replication in the cell wells) (Coronavirus (hCoV-229E); 0.2 mM EGCG + virus, co-incubated 5 minutes, dilution factor 10^8, wells 1-10, third experiment): −
- CPE test (virus replication in cell wells) (Coronavirus (hCoV-229E); 0.2 mM EGCG + virus, hCoV-229E co-incubated 1 minute, second experiment, dilution factor 10^1): +
- CPE test (virus replication in cell wells) (Coronavirus (hCoV-229E); 0.2 mM EGCG + virus, hCoV-229E co-incubated 1 minute, second experiment, dilution factor 10^2): +
- CPE test (virus replication in cell wells) (Coronavirus (hCoV-229E); 0.2 mM EGCG + virus, hCoV-229E co-incubated 1 minute, second experiment, dilution factor 10^3): +
- CPE test (virus replication in cell wells) (Coronavirus (hCoV-229E); 0.2 mM EGCG + virus, hCoV-229E co-incubated 1 minute, second experiment, dilution factor 10^4): +
- CPE test (virus replication in cell wells) (Coronavirus (hCoV-229E); 0.2 mM EGCG + virus, hCoV-229E co-incubated 1 minute, second experiment, dilution factor 10^5): + and −
- CPE test (virus replication in cell wells) (Coronavirus (hCoV-229E); 0.2 mM EGCG + virus, hCoV-229E co-incubated 1 minute, second experiment, dilution factor 10^6): −
- CPE test (virus replication in cell wells) (Coronavirus (hCoV-229E); 0.2 mM EGCG + virus, hCoV-229E co-incubated 1 minute, second experiment, dilution factor 10^7): −
- CPE test (virus replication in cell wells) (Coronavirus (hCoV-229E); 0.2 mM EGCG + virus, hCoV-229E co-incubated 1 minute, second experiment, dilution factor 10^8): −
- CPE test (virus replication in cell wells) (Coronavirus (hCoV-229E); 0.2 mM EGCG + virus, hCoV-229E co-incubated 1 minute, third experiment, dilution factor 10^1): +
- CPE test (virus replication in cell wells) (Coronavirus (hCoV-229E); 0.2 mM EGCG + virus, hCoV-229E co-incubated 1 minute, third experiment, dilution factor 10^2): +
- CPE test (virus replication in cell wells) (Coronavirus (hCoV-229E); 0.2 mM EGCG + virus, hCoV-229E co-incubated 1 minute, third experiment, dilution factor 10^3): +
- CPE test (virus replication in cell wells) (Coronavirus (hCoV-229E); 0.2 mM EGCG + virus, hCoV-229E co-incubated 1 minute, third experiment, dilution factor 10^4): +
- CPE test (virus replication in cell wells) (Coronavirus (hCoV-229E); 0.2 mM EGCG + virus, hCoV-229E co-incubated 1 minute, third experiment, dilution factor 10^5): − and +
- CPE test (virus replication in cell wells) (Coronavirus (hCoV-229E); 0.2 mM EGCG + virus, hCoV-229E co-incubated 1 minute, third experiment, dilution factor 10^6): + and −
- CPE test (virus replication in cell wells) (Coronavirus (hCoV-229E); 0.2 mM EGCG + virus, hCoV-229E co-incubated 1 minute, third experiment, dilution factor 10^7): −
- CPE test (virus replication in cell wells) (Coronavirus (hCoV-229E); 0.2 mM EGCG + virus, hCoV-229E co-incubated 1 minute, third experiment, dilution factor 10^8): −
- inactivation efficiency against the virus (Coronavirus (hCoV-229E); 0.2 mM EGCG, hCoV-229E virus, 1 minute, single experiment): 36.90% and 20.57%
- average inactivation efficiency against virus (Coronavirus (hCoV-229E); 0.2 mM EGCG, hCoV-229E virus, 1 minute): 31.46%
- average inactivation efficiency against virus (Coronavirus (hCoV-229E); 0.2 mM EGCG, hCoV-229E virus, 5 minutes): 13.71%
- CPE test (virus replication in cell wells) (Coronavirus (hCoV-229E); 1 mM EGCG + hCoV-229E virus, co-incubated 1 minute, first experiment, dilution factor 10^1): +
- CPE test (virus replication in cell wells) (Coronavirus (hCoV-229E); 1 mM EGCG + hCoV-229E virus, co-incubated 1 minute, first experiment, dilution factor 10^2): +
- CPE test (virus replication in cell wells) (Coronavirus (hCoV-229E); 1 mM EGCG + hCoV-229E virus, co-incubated 1 minute, first experiment, dilution factor 10^3): +
- CPE test (virus replication in cell wells) (Coronavirus (hCoV-229E); 1 mM EGCG + hCoV-229E virus, co-incubated 1 minute, first experiment, dilution factor 10^4): +
- CPE test (virus replication in cell wells) (Coronavirus (hCoV-229E); 1 mM EGCG + hCoV-229E virus, co-incubated 1 minute, first experiment, dilution factor 10^5): + and −
- CPE test (virus replication in cell wells) (Coronavirus (hCoV-229E); 1 mM EGCG + hCoV-229E virus, co-incubated 1 minute, first experiment, dilution factor 10^6): −
- CPE test (virus replication in cell wells) (Coronavirus (hCoV-229E); 1 mM EGCG + hCoV-229E virus, co-incubated 1 minute, first experiment, dilution factor 10^7): −
- CPE test (virus replication in cell wells) (Coronavirus (hCoV-229E); 1 mM EGCG + hCoV-229E virus, co-incubated 1 minute, first experiment, dilution factor 10^8): −
- CPE test (virus replication in the cell wells) (Coronavirus (hCoV-229E); 1 mM EGCG + virus, co-incubated 5 minute, first experiment, dilution factor 10^1, wells 1-10): +
- CPE test (virus replication in the cell wells) (Coronavirus (hCoV-229E); 1 mM EGCG + virus, co-incubated 5 minute, first experiment, dilution factor 10^2, wells 1-10): +
- CPE test (virus replication in the cell wells) (Coronavirus (hCoV-229E); 1 mM EGCG + virus, co-incubated 5 minute, first experiment, dilution factor 10^3, wells 1-10): +
- CPE test (virus replication in the cell wells) (Coronavirus (hCoV-229E); 1 mM EGCG + virus, co-incubated 5 minute, first experiment, dilution factor 10^4, wells 1-10): +
- CPE test (virus replication in the cell wells) (Coronavirus (hCoV-229E); 1 mM EGCG + virus, co-incubated 5 minute, first experiment, dilution factor 10^5, wells 1-10): − and +
- CPE test (virus replication in the cell wells) (Coronavirus (hCoV-229E); 1 mM EGCG + virus, co-incubated 5 minute, first experiment, dilution factor 10^6, wells 1-10): − and +
- CPE test (virus replication in the cell wells) (Coronavirus (hCoV-229E); 1 mM EGCG + virus, co-incubated 5 minute, first experiment, dilution factor 10^7, wells 1-10): −
- CPE test (virus replication in the cell wells) (Coronavirus (hCoV-229E); 1 mM EGCG + virus, co-incubated 5 minute, first experiment, dilution factor 10^8, wells 1-10): −
- CPE test (virus replication in the cell wells) (Coronavirus (hCoV-229E); 1 mM EGCG + virus, co-incubated 5 minute, second experiment, dilution factor 10^1, wells 1-10): +
- CPE test (virus replication in the cell wells) (Coronavirus (hCoV-229E); 1 mM EGCG + virus, co-incubated 5 minute, second experiment, dilution factor 10^2, wells 1-10): +
- CPE test (virus replication in the cell wells) (Coronavirus (hCoV-229E); 1 mM EGCG + virus, co-incubated 5 minute, second experiment, dilution factor 10^3, wells 1-10): +
